Test results from patent publication US3959272A, “Aminoalkyl esters of 2-anilino-nicotinic acids” (Societe Anonyme dite: Hexachime, priority 1972, dated 1976).

Assay: Cardiovascular parameters: atropinised and bivagotomised dogs
Assay type: in vivo, dog
Experimental: Unsorted dogs of either sex weighing 8 to 17 kg and anaesthetised by chloralose in solution in polyethylene glycol 300 (0.12 g/kg) were respirated artificially using a Bird pump (Mark 7). The carotid arterial blood pressure was measured with the aid of a Statham P 23 dB device. The left ventricular pressure is measured with the same device connected by a supple catheter introduced by the femoral artery and pushed into the left ventricle. The cardiac rhythm is measured from the signals of the carotid pressure. The myocardial contractile force is measured using a strain gauge (Apelab) attached to the right ventricle. All the parameters are recorded on a Beckman polygraph. Two series of dogs are used to test the cardiovascular activity: 5 dogs atropinised (1 mg/kg intravenously) and bivagotomised; and a second series of 4 intact dogs. The product of Example 1 was injected through the saphena vein and the duration of the injection was 2 minutes.
The following Table VIII gives the variations of the recorded parameters and their significance according to the t test (* p< 0.05; ** p<0.01).

[1] = 5 mg/kg intravenously, 5 dogs, * p<0.05
[2] = 8 mg/kg intravenously, 5 dogs, ** p<0.01

Structure (SMILES): Cc1cccc(Nc2ncccc2C(=O)OCCN2CCOCC2)c1C [Example 1, β-Morpholino ethyl nixylate]
- Average blood pressure (1 mg/kg intravenously, 5 dogs): -4±2%
- Diastolic blood pressure (1 mg/kg intravenously, 5 dogs): -4±2%
- Systolic blood pressure (1 mg/kg intravenously, 5 dogs): -3,3±3%
- Average blood pressure (2 mg/kg intravenously, 2 dogs): -12%
- Diastolic blood pressure (2 mg/kg intravenously, 2 dogs): -12%
- Duration of reduced blood pressure (2 mg/kg intravenously, 2 dogs): 30
- Systolic blood pressure (2 mg/kg intravenously, 2 dogs): -12%
- Change in cardiac rhythm (5 mg/kg intravenously, 5 dogs): -8 to -20 beats per minute
- Diastolic blood pressure [1]: -15±4%
- Systolic blood pressure [1]: -13±3%
- Average blood pressure (5 mg/kg intravenously, 5 dogs, ** p<0.01): -14±3%
- Change in cardiac rhythm (8 mg/kg intravenously, 5 dogs): -8 to -20 beats per minute
- Average blood pressure [2]: -26±5%
- Diastolic blood pressure [2]: -27±5%
- Systolic blood pressure [2]: -24±5%
- Average blood pressure (16 mg/kg intravenously, 2 dogs): -31%
- Change in cardiac rhythm (16 mg/kg intravenously, 2 dogs): -18 to -24 beats per minute
- Diastolic blood pressure (16 mg/kg intravenously, 2 dogs): -32%
- Duration of reduced blood pressure (16 mg/kg intravenously, 2 dogs): > 30
- Systolic blood pressure (16 mg/kg intravenously, 2 dogs): -30%
- blood pressure (doses of 4 mg/kg and above, during the injection or one to two minutes afterwards): reduction in blood pressure
- contractile force (during the injection or one to two minutes afterwards, 2 dogs only): slight increase in the contractile force
- increase in the cardiac rhythm (during the injection or one to two minutes afterwards, according to the dose): 2-16 beats per minute
- left ventricular blood pressure (measured in two dogs only): followed the variations of the arterial blood pressure
- hypotension (two minutes after the injection): hypotension proportional to the dose injected
